Where “and” joins values, the source holds several entries; their conditions need not be identical. Identical values can stand only once. ± gives the expanded uncertainty stated by the source.
Experiment: molar heat capacity at constant volume; xn = mol fraction of the nth substance listed
Details: x1 = 0.2607

N [ammonia] + O
Details | molar heat capacity at constant volume
601.54 K, Fluid (supercritical or subcritical phases), Mass density=301.94 kg/m3, isochoric heat capacity | 93.57 ± 3.7 J/K/mol
601.55 K, Fluid (supercritical or subcritical phases), Mass density=291.16 kg/m3, isochoric heat capacity | 90.62 ± 3.6 J/K/mol
601.56 K, Fluid (supercritical or subcritical phases), Mass density=188.05 kg/m3, isochoric heat capacity | 61.55 ± 2.9 J/K/mol
601.62 K, Fluid (supercritical or subcritical phases), Mass density=285.71 kg/m3, isochoric heat capacity | 88.9 ± 3.7 J/K/mol
601.63 K, Fluid (supercritical or subcritical phases), Mass density=299.79 kg/m3, isochoric heat capacity | 98.44 ± 3.9 J/K/mol
601.66 K, Fluid (supercritical or subcritical phases), Mass density=294.44 kg/m3, isochoric heat capacity | 99.98 ± 4 J/K/mol
601.71 K, Fluid (supercritical or subcritical phases), Mass density=285.71 kg/m3, isochoric heat capacity | 87.96 ± 3.6 J/K/mol
601.71 K, Fluid (supercritical or subcritical phases), Mass density=299.79 kg/m3, isochoric heat capacity | 95.13 ± 3.8 J/K/mol
601.75 K, Fluid (supercritical or subcritical phases), Mass density=188.05 kg/m3, isochoric heat capacity | 64.8 ± 2.6 J/K/mol
601.75 K, Fluid (supercritical or subcritical phases), Mass density=195.99 kg/m3, isochoric heat capacity | 103.89 ± 4.7 J/K/mol
601.75 K, Liquid, Isochoric heat capacity | 103.89 ± 4.2 J/K/mol
601.79 K, Fluid (supercritical or subcritical phases), Mass density=195.99 kg/m3, isochoric heat capacity | 94.8 ± 4.2 J/K/mol
601.82 K, Fluid (supercritical or subcritical phases), Mass density=294.44 kg/m3, isochoric heat capacity | 98.74 ± 4 J/K/mol
601.88 K, Fluid (supercritical or subcritical phases), Mass density=376.89 kg/m3, isochoric heat capacity | 79.03 ± 3.2 J/K/mol
601.89 K, Fluid (supercritical or subcritical phases), Mass density=195.99 kg/m3, isochoric heat capacity | 87.6 ± 4.1 J/K/mol
601.97 K, Fluid (supercritical or subcritical phases), Mass density=297.6 kg/m3, isochoric heat capacity | 100.3 ± 4 J/K/mol
601.97 K, Fluid (supercritical or subcritical phases), Mass density=376.89 kg/m3, isochoric heat capacity | 76.68 ± 3.1 J/K/mol
601.98 K, Fluid (supercritical or subcritical phases), Mass density=195.99 kg/m3, isochoric heat capacity | 77.82 ± 3.2 J/K/mol
602.05 K, Fluid (supercritical or subcritical phases), Mass density=271.09 kg/m3, isochoric heat capacity | 106.73 ± 4.3 J/K/mol
602.05 K, Fluid (supercritical or subcritical phases), Mass density=376.89 kg/m3, isochoric heat capacity | 80.09 ± 3.2 J/K/mol
602.05 K, Liquid, Isochoric heat capacity | 106.73 ± 4.3 J/K/mol
602.08 K, Fluid (supercritical or subcritical phases), Mass density=271.09 kg/m3, isochoric heat capacity | 104.24 ± 4.2 J/K/mol
602.09 K, Fluid (supercritical or subcritical phases), Mass density=271.09 kg/m3, isochoric heat capacity | 100.44 ± 4.1 J/K/mol
602.12 K, Fluid (supercritical or subcritical phases), Mass density=271.09 kg/m3, isochoric heat capacity | 96.3 ± 3.9 J/K/mol
602.13 K, Fluid (supercritical or subcritical phases), Mass density=307.35 kg/m3, isochoric heat capacity | 96.93 ± 3.9 J/K/mol
602.14 K, Fluid (supercritical or subcritical phases), Mass density=312.91 kg/m3, isochoric heat capacity | 83.15 ± 3.3 J/K/mol
602.22 K, Fluid (supercritical or subcritical phases), Mass density=312.91 kg/m3, isochoric heat capacity | 82.81 ± 3.3 J/K/mol
602.23 K, Fluid (supercritical or subcritical phases), Mass density=307.35 kg/m3, isochoric heat capacity | 92.38 ± 3.7 J/K/mol
602.24 K, Fluid (supercritical or subcritical phases), Mass density=271.09 kg/m3, isochoric heat capacity | 93.92 ± 3.8 J/K/mol
602.26 K, Fluid (supercritical or subcritical phases), Mass density=205.58 kg/m3, isochoric heat capacity | 105.31 ± 4.3 J/K/mol
602.26 K, Liquid, Isochoric heat capacity | 105.31 ± 4.2 J/K/mol
602.3 K, Fluid (supercritical or subcritical phases), Mass density=312.91 kg/m3, isochoric heat capacity | 81.1 ± 3.2 J/K/mol
602.31 K, Fluid (supercritical or subcritical phases), Mass density=205.58 kg/m3, isochoric heat capacity | 100.51 ± 4.1 J/K/mol
602.38 K, Fluid (supercritical or subcritical phases), Mass density=271.09 kg/m3, isochoric heat capacity | 89.02 ± 3.7 J/K/mol
602.39 K, Fluid (supercritical or subcritical phases), Mass density=205.58 kg/m3, isochoric heat capacity | 86.66 ± 3.6 J/K/mol
602.39 K, Fluid (supercritical or subcritical phases), Mass density=312.91 kg/m3, isochoric heat capacity | 81.72 ± 3.3 J/K/mol
602.4 K, Fluid (supercritical or subcritical phases), Mass density=307.35 kg/m3, isochoric heat capacity | 94.4 ± 3.8 J/K/mol
602.45 K, Liquid, Isochoric heat capacity | 105.13 ± 4.2 J/K/mol
602.48 K, Fluid (supercritical or subcritical phases), Mass density=205.58 kg/m3, isochoric heat capacity | 75.47 ± 3.1 J/K/mol
602.48 K, Fluid (supercritical or subcritical phases), Mass density=243.98 kg/m3, isochoric heat capacity | 100.07 ± 4 J/K/mol
602.48 K, Fluid (supercritical or subcritical phases), Mass density=260.02 kg/m3, isochoric heat capacity | 100.07 ± 4 J/K/mol
602.48 K, Fluid (supercritical or subcritical phases), Mass density=307.35 kg/m3, isochoric heat capacity | 89.36 ± 3.6 J/K/mol
602.48 K, Fluid (supercritical or subcritical phases), Mass density=312.91 kg/m3, isochoric heat capacity | 84.69 ± 3.4 J/K/mol
602.48 K, Fluid (supercritical or subcritical phases), Mass density=342.18 kg/m3, isochoric heat capacity | 86.56 ± 3.5 J/K/mol
602.48 K, Fluid (supercritical or subcritical phases), Mass density=376.89 kg/m3, isochoric heat capacity | 81.21 ± 3.2 J/K/mol
602.48 K, Fluid (supercritical or subcritical phases), Mass density=456.58 kg/m3, isochoric heat capacity | 66.2 ± 2.6 J/K/mol
602.51 K, Fluid (supercritical or subcritical phases), Mass density=271.09 kg/m3, isochoric heat capacity | 86.04 ± 3.5 J/K/mol
602.56 K, Fluid (supercritical or subcritical phases), Mass density=205.58 kg/m3, isochoric heat capacity | 77.07 ± 3.2 J/K/mol
602.56 K, Fluid (supercritical or subcritical phases), Mass density=243.98 kg/m3, isochoric heat capacity | 96.22 ± 3.9 J/K/mol
602.56 K, Fluid (supercritical or subcritical phases), Mass density=260.02 kg/m3, isochoric heat capacity | 96.22 ± 3.9 J/K/mol
602.56 K, Fluid (supercritical or subcritical phases), Mass density=307.35 kg/m3, isochoric heat capacity | 92.18 ± 3.7 J/K/mol
602.56 K, Fluid (supercritical or subcritical phases), Mass density=342.18 kg/m3, isochoric heat capacity | 87.35 ± 3.5 J/K/mol
602.62 K, Fluid (supercritical or subcritical phases), Mass density=195.99 kg/m3, isochoric heat capacity | 72.88 ± 2.9 J/K/mol
602.65 K, Fluid (supercritical or subcritical phases), Mass density=243.98 kg/m3, isochoric heat capacity | 98.1 ± 3.9 J/K/mol
602.65 K, Fluid (supercritical or subcritical phases), Mass density=260.02 kg/m3, isochoric heat capacity | 98.1 ± 3.9 J/K/mol
602.65 K, Fluid (supercritical or subcritical phases), Mass density=376.89 kg/m3, isochoric heat capacity | 81.09 ± 3.2 J/K/mol
602.65 K, Fluid (supercritical or subcritical phases), Mass density=456.58 kg/m3, isochoric heat capacity | 68.55 ± 2.7 J/K/mol
602.74 K, Fluid (supercritical or subcritical phases), Mass density=205.58 kg/m3, isochoric heat capacity | 73.93 ± 3 J/K/mol
602.74 K, Fluid (supercritical or subcritical phases), Mass density=214.83 kg/m3, isochoric heat capacity | 106.91 ± 4.4 J/K/mol
602.74 K, Fluid (supercritical or subcritical phases), Mass density=243.98 kg/m3, isochoric heat capacity | 94.92 ± 3.8 J/K/mol
602.74 K, Fluid (supercritical or subcritical phases), Mass density=260.02 kg/m3, isochoric heat capacity | 94.92 ± 3.8 J/K/mol
602.74 K, Fluid (supercritical or subcritical phases), Mass density=342.18 kg/m3, isochoric heat capacity | 87.43 ± 3.5 J/K/mol
602.74 K, Fluid (supercritical or subcritical phases), Mass density=376.89 kg/m3, isochoric heat capacity | 79.29 ± 3.2 J/K/mol
602.74 K, Liquid, Isochoric heat capacity | 106.91 ± 4.3 J/K/mol
602.82 K, Fluid (supercritical or subcritical phases), Mass density=214.83 kg/m3, isochoric heat capacity | 102.73 ± 4.2 J/K/mol
602.82 K, Fluid (supercritical or subcritical phases), Mass density=456.58 kg/m3, isochoric heat capacity | 67.55 ± 2.7 J/K/mol
602.85 K, Fluid (supercritical or subcritical phases), Mass density=218.92 kg/m3, isochoric heat capacity | 108.5 ± 4.5 J/K/mol
602.85 K, Liquid, Isochoric heat capacity | 108.5 ± 4.3 J/K/mol
602.91 K, Fluid (supercritical or subcritical phases), Mass density=214.83 kg/m3, isochoric heat capacity | 94.28 ± 4.2 J/K/mol
602.91 K, Fluid (supercritical or subcritical phases), Mass density=218.92 kg/m3, isochoric heat capacity | 99.09 ± 4 J/K/mol
602.91 K, Fluid (supercritical or subcritical phases), Mass density=243.98 kg/m3, isochoric heat capacity | 106.2 ± 4.3 J/K/mol
602.91 K, Fluid (supercritical or subcritical phases), Mass density=311.19 kg/m3, isochoric heat capacity | 90.5 ± 3.6 J/K/mol
602.91 K, Fluid (supercritical or subcritical phases), Mass density=342.18 kg/m3, isochoric heat capacity | 82.9 ± 3.3 J/K/mol
602.91 K, Liquid, Isochoric heat capacity | 106.2 ± 4.2 J/K/mol
602.96 K, Fluid (supercritical or subcritical phases), Mass density=224.53 kg/m3, isochoric heat capacity | 111.03 ± 4.5 J/K/mol
602.96 K, Fluid (supercritical or subcritical phases), Mass density=230.31 kg/m3, isochoric heat capacity | 111.35 ± 4.7 J/K/mol
602.96 K, Liquid, Isochoric heat capacity | 111.35 ± 4.5 J/K/mol and 111.03 ± 4.4 J/K/mol
602.97 K, Fluid (supercritical or subcritical phases), Mass density=227.54 kg/m3, isochoric heat capacity | 112.45 ± 4.7 J/K/mol
602.97 K, Liquid, Isochoric heat capacity | 112.45 ± 4.5 J/K/mol
602.99 K, Fluid (supercritical or subcritical phases), Mass density=214.83 kg/m3, isochoric heat capacity | 91.33 ± 3.7 J/K/mol
602.99 K, Fluid (supercritical or subcritical phases), Mass density=224.53 kg/m3, isochoric heat capacity | 109.57 ± 4.4 J/K/mol

Reference: the NIST ThermoML archive (doi:10.1007/s10765-009-0602-6)
